The subject of one series is fetal globin mRNA. The series can be described thus: Fetal globin mRNA response in patients. The settings on record: β-hemoglobinopathies; IV 500 to 2,000 mg/kg/day, 2-7 weeks. The series is classed as in vivo, human. Here is the method:
Eleven pediatric and twelve adult patients with β-hemoglobinopathies have been treated with IV arginine butyrate at a starting dose of 500 mg/kg/day for 2-7 weeks. Dose escalation at the rate of 250 mg/kg/day to a maximum of 2,000 mg/kg/day was permitted.

The test system of series [1] is 3 other neuroblastoma cell lines. Description: Growth inhibition over 6 days (RFU). In kind it is cell-based, human. To be noted: 0.5 and 1.0 mM, FIG. 1a.
Series [2] can be described thus: Clinical pharmacokinetics of butyrate infusion. The series is classed as in vivo, human. To be noted: patients with β-hemoglobinopathies. Here is the method:
Clinical experience with butyrates have been performed in children with acute myelogenous leukemia in Israel, and in children with neuroblastoma (K. Prasad, Life Sci. 27:1351-58, 1980). […] Eleven pediatric patients and twelve adults with β-hemoglobinopathies were treated with IV arginine butyrate at a starting dose of 500 mg/kg/day for 2-7 weeks. If no side effects were noted, the rate was increased by 250 mg/kg/day to a final rate of 1500 mg/kg/day in 4 patients, and 2000 mg/kg/day in 2 patients. […] This rise in BUN returned to normal within 12 hours of discontinuation of drug, and is thought to be secondary to effect of arginine upon ureagenesis. […] Peak serum levels of butyrate ranged between 0.04-0.05 mM, and butyrate was not detectable 15 minutes after infusion was discontinued. Plasma arginine levels were also rapidly cleared, with a T1/2 of 15 minutes, and baseline arginine levels were reached within 12 hours after discontinuation of infusion.
Butyric acid is a short chain fatty acid present in foods such as dairy products. Arginine is an amino acid which is commonly used in hyperalimentation solutions in hospitals throughout the country. Butyric acid was obtained from Aldrich, catalog number W-212. L-Arginine is anhydrous. Arginine was combined with butyric acid, pH 5.0-5.5, in sterile, non-pyrogenic water for injection to neutralize the fatty acid. The solution was filtered through a Millipore System at a final concentration for injection of 100 mg/ml or 25 mg/ml. Each lot was pyrogen tested and tested for sterility and purity. […] Since 10% arginine butyrate solution is hypertonic (100 mg/ml), it must be infused through a long or deep IV access to avoid peripheral venous irritation. Arginine butyrate was infused via an infusion pump. European pharmacokinetic studies of arginine butyrate given as a “slow” and 90 minute bolus of 500 mls of a 5% solution (2.5 g/M in two normal volunteers, and found a 15 minute elimination period. Plasma levels from patients with hemoglobinopathies have shown that butyric acid disappears within 5 to 15 minutes after an infusion of up to 2,000 mg/kg/day.
In vitro, peaks induction of EBV-TK plateaus at serum level of around 1 mM. […] Therefore, dose levels up to 2,000 mg/kg/day, were evaluated in an attempt to reach serum levels of 1 mM. Treatment cycles were of 4 week duration, with 3 weeks on treatment and one week off. Patients were given the standard dose of GCV throughout each 21 day course of arginine butyrate, starting, however, on day 0. Arginine butyrate was given by continuous IV infusion at 500 mg/kg/day for 2 days, at 1,000 mg/kg/day for 2 days, at 1,500 mg/kg/day for 2 days, and thereafter at 2,000 mg/kg/day, or as tolerated, for the rest of the 21 day course. Cycle 2 was begun on Day 29. […]

A further series has as its system refractory neoplasms. Description: Tumor response in patients with refractory neoplasms. In kind it is in vivo, human. Here is the method:
Three patients with refractory neoplasms (breast, melanoma, adenocarcinoma, of unknown primary) have been enrolled and completed 1-2 cycles of arginine butyrate as a dose of 500 mg/kg/day over 6-8 hours for 10 days.
Three patients (with breast cancer, bowel cancer or Hodgkins disease) have completed two cycles of arginine butyrate at a dose of 750 mg/kg/day for 10 days. […] Otherwise, there was no other objective measures of organ progressed after treatment was topped. […] There was a further resolution of the disease during the second cycle. Disease progression was noted one month after second cycle was completed. At 1000 mg/kg/day, 3 patients have been enrolled on study.
An inter-group dose-escalation study is being conducted in patients with refractory malignancies. There are 3 patients per group with the dose levels starting at 500 mg/kg/day, and increasing by 250 mg/kg/day per group, if toxicity permits. Doses are given by 8 hour IV infusion, daily, for 5 days times 2 weeks, with weekends off, for a total of 10 days of treatment per cycle.

For series [3], the system named is HLA antigens in K562 cells. The settings on record: one hour of exposure to 1 mM. Here is the method: HLA Induction: Arginine butyrate was tested for its ability to induce expression of HLA antigens in K562 cells, a human erythroleukemia cell line.
For series [4], the system named is HIV p24 in co-cultures of human PBMC and Ci11. The series can be described thus: HIV p24 production, radio-immuno assay. In kind it is cell-based. The settings on record: 72 hours post-cultivation; FIG. 13. From the text:
The effect of arginine butyrate on HIV p24 production could be easily studied in co-cultures of human PBMC and Ci11, an HIV infected cell line. […] Despite these encouraging results with a more direct assay than those published previously, the potential risks to HIV+ patients of treatment with arginine butyrate have not been evaluated as these patients were excluded from the protocol (FIG. 13). HIV p24 levels assessed by radio-immuno assay.

Series [5] deals with EBV-TK mRNA in Raji (non-producer line). Description: EBV-TK mRNA induction in lymphoma cell lines. The series is classed as cell-based, human. The settings on record: high basal level of TK, 12 hours, 3 mM. The method, then:
Because of arginine butyrate's ability to induce various genes, its ability to induce EBV-TK mRNA in human lymphoma cell lines was evaluated. FIG. 7 provides bar graphs of the basal levels of TK and the levels following 12 hours of incubation with 3 mM arginine butyrate in 3 lymphoma cell lines: X50-7 a latent large cell lymphoma (B cell); P3RH1 an EBV B-cell producer line derived from Burkitt's lymphoma; and Raji a non-producer line derived from a Burkitt's lymphoma. EBV-TK levels were not increased in the EBV non-producer cell line, Raji, which has a high basal level of TK, but were increased approximately 4 fold in an EBV producer cell line and 10 fold in a non-producer cell line.

A value given as a limit tells only on which side of the number the result lay.

With arginine butyrate, the “response as judged by increase in fetal globin mRNA” value in the series with fetal globin mRNA is on record as “most patients showed response”. Besides, in series [1], the growth inhibition entry was “dose response growth inhibition”. In series [2] (IV), the “Plasma arginine T1/2” value stood at 15 min, the “time after discontinuation of infusion at which butyrate was not detectable” value was 15 min and the “time to baseline arginine levels after discontinuation of infusion” value was not above 12 h. Also, in series [2] (IV 500 up to 2000 mg/kg/day), the “Peak serum levels of butyrate” value was in the range of 0.04 to 0.05 mM. In addition, in the series on refractory neoplasms (500 mg/kg/day, three patients, 1-2 cycles), the objective tumor responses entry is “No objective tumor responses were noted”. The stable disease result with refractory neoplasms (750 mg/kg/day, after two cycles) was “Two patients had stable disease after two cycles”. Besides, in the series with refractory neoplasms (750 mg/kg/day, patient with Hodgkin's disease, after first cycle), the “partial response, reduction in tumor area” value is given as more than 80%. Also, the HLA expression increase entry in series [3] is on record as “more than 20 fold”. The “HIV p24 production” value in series [4] is listed as “significant decrease in p24 production”. Moreover, in series [5], the EBV-TK levels result was “not increased”.

Source of the values: patent US6677302B2, “Compositions and methods for the treatment of viral disorders” (The Trustees of Boston University, priority 1996, dated 2004).
